Where a name gives a salt, the structure may show the parent alone.

T1 sequence (Q13639 whole entry): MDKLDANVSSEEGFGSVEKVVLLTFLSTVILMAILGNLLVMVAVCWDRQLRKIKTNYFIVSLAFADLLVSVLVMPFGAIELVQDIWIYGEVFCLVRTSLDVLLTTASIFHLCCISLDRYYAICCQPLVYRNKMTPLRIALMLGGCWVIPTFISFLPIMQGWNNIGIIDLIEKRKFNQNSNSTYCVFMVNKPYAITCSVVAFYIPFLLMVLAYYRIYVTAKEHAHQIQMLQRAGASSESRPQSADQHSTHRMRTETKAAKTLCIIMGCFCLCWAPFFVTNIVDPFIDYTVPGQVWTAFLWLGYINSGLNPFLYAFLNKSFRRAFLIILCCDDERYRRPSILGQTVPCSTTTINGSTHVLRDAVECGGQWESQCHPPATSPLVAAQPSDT

The first test has as its target T1, recombinant human 5-HT4 receptor (Homo sapiens, UniProt Q13639).
T1 construct: expressed in transfected cells
In words: Determination of EC50 values for 5-HT4 receptor (CRE-luciferase reporter, CHO cells). The note with it: stable CHO cell line expressing recombinant human 5-HT4 receptor and pCRE-Luc reporter; 4 hours incubation; luciferase activity. The format is cell-based. As for the experimental part:
A stable CHO cell line expressing recombinant human 5-HT4 receptor and pCRE-Luc reporter system was used for cell-based assay. The assay offers a non-radioactive based approach to determine binding of a compound to GPCRs. In this specific assay, the level of intracellular cyclic AMP which is modulated by activation or inhibition of the receptor is measured. The recombinant cells harbor luciferase reporter gene under the control of cAMP response element.
The above cells were grown in 96 well clear bottom white plates in Hams F12 medium containing 10% fetal bovine serum (FBS). Prior to the addition of compounds or standard agonist, cells were serum starved overnight. Increasing concentrations of test compounds were added in OptiMEM medium to the cells. The incubation was continued at 37° C. in CO2 incubator for 4 hours. Medium was removed and cells were washed with phosphate buffered saline. The cells were lysed and luciferase activity was measured in a Luminometer. Luminescence units were plotted against the compound concentrations using Graphpad software. EC50 values of the compounds were defined as the concentration required in stimulating the luciferase activity by 50%.
For orientation: Reporter assays use an easily measured gene product as a stand-in for the process of interest.
On to `CC(C)Cn1c(=O)c(C(=O)NCCCN2C3CC4CC(C3)CC2C4)c(O)c2ccccc21` [Example 2, N-[(2-Azatricyclo[3.3.1.1^3,7]dec-2-yl)propyl]-4-hydroxy-1-isobutyl-2-oxo-1,2-dihydroquinoline-3-carboxamide hydrochloride], for which the concentration for a half-maximal effect (EC50) was determined as 4.02 µM.
Still for that read-out and setting: the same measure for `CC(C)n1c(=O)c(C(=O)NC2CCN(C3C4CC5CC(C4)CC3C5)C2)c(O)c2ccccc21` (stereo not drawn) [Example 3, N-[1-(Tricyclo[3.3.1.1^3,7]dec-2-yl)pyrrolidin-3-yl]-4-hydroxy-1-isopropyl-2-oxo-1,2-dihydroquinoline-3-carboxamide]: 1.11 µM.
Still for that read-out and setting: for `CC(C)n1c(=O)c(C(=O)NCCCN2C3CC4CC2CC(c2ccccc2)(C4)C3)c(O)c2ccccc21` [Example 5, N-[(5-Phenyl-2-azatricyclo[3.3.1.1^3,7]dec-2-yl)propyl]-4-hydroxy-1-isopropyl-2-oxo-1,2-dihydroquinoline-3-carboxamide hydrochloride] the value was 1.6 µM.
On the same count and under the same terms, the same measure for `CC(C)n1c(=O)c(C(=O)NCCCN2CC3CC4CC2CN(C4)C3)c(O)c2ccccc21` (stereo not drawn) [Example 6, N-[(1,4-Diazatricyclo[4.3.1.1^3,8]undec-4-yl)propyl]-4-hydroxy-1-isopropyl-2-oxo-1,2-dihydro-quinoline-3-carboxamide]: 0.667 µM.
With `CC(C)n1c(=O)c(C(=O)NCCCN2C3CC4CC(C3)CC2C4)c(O)c2cc(Cl)ccc21` [Example 8, N-[(2-Azatricyclo[3.3.1.1^3,7]dec-2-yl)propyl]-6-chloro-4-hydroxy-1-isopropyl-2-oxo-1,2-dihydroquinoline-3-carboxamide], the EC50 stood at 3.08 µM.
The same measure, in the same setting: the same measure for `CC(C)n1c(=O)c(C(=O)NCCCN2C3CC4CC(C3)CC2C4)c(O)c2cc(F)ccc21` [Example 9, N-[(2-Azatricyclo[3.3.1.1^3,7]dec-2-yl)propyl]-6-fluoro-4-hydroxy-1-isopropyl-2-oxo-1,2-dihydroquinoline-3-carboxamide]: 0.935 µM; for `CC(C)n1c(=O)c(C(=O)NCCCN2C3CC4CC(C3)CC2C4)c(O)c2cc(Br)ccc21` [Example 10, N-[(2-Azatricyclo[3.3.1.1^3,7]dec-2-yl)propyl]-6-bromo-4-hydroxy-1-isopropyl-2-oxo-1,2-dihydroquinoline-3-carboxamide]: 2.8 µM; for `CC(C)n1c(=O)c(C(=O)NCCCN2C3CC4CC(C3)CC2C4)c(O)c2cc(N)ccc21` [Example 11, N-[(2-Azatricyclo[3.3.1.1^3,7]dec-2-yl)propyl]-6-amino-4-hydroxy-1-isopropyl-2-oxo-1,2-dihydroquinoline-3-carboxamide]: 3 µM.
The same measure, in the same setting: for `CC(C)n1c(=O)c(C(=O)NC2C3CCN(CC3)C2Cc2cccnc2)c(O)c2ccccc21` (stereo not drawn) [Example 12, N-[2-(Pyridin-3-ylmethyl)-1-azabicyclo[2.2.2]oct-3-yl]-4-hydroxy-1-isopropyl-2-oxo-1,2-dihydroquinoline-3-carboxamide] the value was 0.972 µM; for `CC(C)n1c(=O)c(C(=O)NC2C3CCN(CC3)C2Cc2ccccn2)c(O)c2ccccc21` (stereo not drawn) [Example 13, N-[2-(Pyridin-2-ylmethyl)-1-azabicyclo[2.2.2]oct-3-yl]-4-hydroxy-1-isopropyl-2-oxo-1,2-dihydroquinoline-3-carboxamide], 0.462 µM.
On to `CC(C)N1C2CC3CC1CC(NC(=O)c1c(O)c4ccccc4n(C(C)C)c1=O)(C3)C2` [Example 15, N-(2-Isopropyl-2-azatricyclo[3.3.1.1^3,7]dec-5-yl)-4-hydroxy-1-isopropyl-2-oxo-1,2-dihydro-quinoline-3-carboxamide], for which the EC50 worked out at 2.73 µM.
The same measure, in the same setting: for `CC(C)n1c(=O)c(C(=O)NC2C3CCN(CC3)C2Cc2ccccc2)c(O)c2ccccc21` (stereo not drawn) [Example 16, N-(2-Benzyl-1-azabicyclo[2.2.2]oct-3-yl)-4-hydroxy-1-isopropyl-2-oxo-1,2-dihydroquinoline-3-carboxamide] the value was 3.92 µM.
The same measure, in the same setting: for `CC(C)n1c(=O)c(C(=O)NCCN2C3CC4CC(C3)CC2C4)c(O)c2ccccc21` [Example 17, N-[(2-Azatricyclo[3.3.1.1^3,7]dec-2-yl)ethyl]-4-hydroxy-1-isopropyl-2-oxo-1,2-dihydroquinoline-3-carboxamide hydrochloride] the value was 1.15 µM; for `CCCCN1C2CC3CC1CC(NC(=O)c1c(O)c4ccccc4n(C(C)C)c1=O)(C3)C2` [Example 18, N-(2-Butyl-2-azatricyclo[3.3.1.1^3,7]dec-5-yl)-4-hydroxy-1-isopropyl-2-oxo-1,2-dihydroquinoline-3-carboxamide hydrochloride], 0.958 µM; for `CCN1C2CC3CC1CC(CNC(=O)c1c(O)c4ccccc4n(C(C)C)c1=O)(C3)C2.Cl` [Example 19, N-(2-Ethyl-2-azatricyclo[3.3.1.1^3,7]dec-5-ylmethyl)-4-hydroxy-1-isopropyl-2-oxo-1,2-dihydroquinoline-3-carboxamide hydrochloride], 0.645 µM.
Still for that read-out and setting: for `CCCCN1CCC(NC(=O)c2c(O)c3ccccc3n(C(C)C)c2=O)CC1` [Example 20, N-(1-Butylpiperidin-4-yl)-4-hydroxy-1-isopropyl-2-oxo-1,2-dihydroquinoline-3-carboxamide hydrochloride] the value was 0.077 µM; for `CC(C)n1c(=O)c(C(=O)NC23CC4CC2CC(N2CCCC2)(C4)C3)c(O)c2ccccc21` (stereo not drawn) [Example 21], 0.476 µM.
For “N-[(2-Azatricyclo[3.3.1.1^3,7]dec-2-yl) propyl]-4-hydroxy-1-isobutyl-6-methoxy-2-oxo-1,2-dihydroquinoline-3-carboxamide [Example 7]”, the EC50 was found to be 1 µM.

The next test has as its system novel object recognition (cognition) in rats. In words: Object recognition task model. The format is in vivo, rat. The conditions noted are these: 1 mg/kg p.o. As for the experimental part: The cognition-enhancing properties of compounds of this invention were estimated using a model of animal cognition: the object recognition task model.
Male Wister rats (230-280 grams) obtained from N. I. N. (National Institute of Nutrition, Hyderabad, India) was used as experimental animals. Four animals were housed in each cage. Animals were kept on 20% food deprivation before one day and given water ad libitum throughout the experiment and maintained on a 12 hours light/dark cycle. Also the rats were habituated to individual arenas for 1 hour in the absence of any objects.
One group of 12 rats received vehicle (1 mL/Kg) orally and another set of animals received compound of the formula (I) either orally or i.p., before one hour of the familiar (T1) and choice trial (T2).
The experiment was carried out in a 50×50×50 cm open field made up of acrylic. In the familiarization phase (T1), the rats were placed individually in the open field for 3 minutes, in which two identical objects (plastic bottles, 12.5 cm height×5.5 cm diameter) covered in yellow masking tape alone (a1 and a2) were positioned in two adjacent corners, 10 cm. from the walls. After 24 hours of the (T1) trial for long-term memory test, the same rats were placed in the same arena as they were placed in (T1) trial. Choice phase (T2) rats were allowed to explore the open field for 3 minutes in presence of one familiar object (a3) and one novel object (b) (Amber color glass bottle, 12 cm high and 5 cm in diameter). Familiar objects presented similar textures, colors and sizes. During the T1 and T2 trial, explorations of each object (defined as sniffing, licking, chewing or having moving vibrissae whilst directing the nose towards the object at a distance of less than 1 cm) were recorded separately by stopwatch. Sitting on an object was not regarded as exploratory activity, however, it was rarely observed.
T1 is the total time spent exploring the familiar objects (a 1+a2).
T2 is the total time spent exploring the familiar object and novel object (a3+b).
The object recognition test was performed as described by Ennaceur, A., Delacour, J., 1988, A new one-trial test for neurobiological studies of memory in rats—Behavioural data, Behav. Brain Res., 31, 47-59.
For `CCN1C2CC3CC1CC(CNC(=O)c1c(O)c4ccccc4n(C(C)C)c1=O)(C3)C2.Cl` [Example 19, N-(2-Ethyl-2-azatricyclo[3.3.1.1^3,7]dec-5-ylmethyl)-4-hydroxy-1-isopropyl-2-oxo-1,2-dihydroquinoline-3-carboxamide hydrochloride], the Inference result is recorded as “Active”.

Staying with this test, now noted: 1 mg/kg p.o., choice trial T2 24 hours after T1.
In the case of `CCN1C2CC3CC1CC(CNC(=O)c1c(O)c4ccccc4n(C(C)C)c1=O)(C3)C2.Cl` [Example 19, N-(2-Ethyl-2-azatricyclo[3.3.1.1^3,7]dec-5-ylmethyl)-4-hydroxy-1-isopropyl-2-oxo-1,2-dihydroquinoline-3-carboxamide hydrochloride], the “Exploration time mean ± S.E.M, Familiar object” value came to 8.83 ± 1.54 s and the “Exploration time mean ± S.E.M, Novel object” value was determined as 14.09 ± 1.56 s.

What is called EC50 is the concentration giving half of the maximal effect.

The values are drawn from US8598204B2, “1,2-dihydro-2-oxoquinoline compounds as 5-HT4 receptor ligands” (Suven Life Sciences Limited, priority 2009, dated 2013).
